Earlier results in publication PMC10975502 (Methods in molecular biology (Clifton, N.J.), 2022).

Details: result in words

Substance: cyclo(FfΦRrRrQ) [CPP12]
- activity in cytosolic delivery: high activity
